# Data as given in patent US11623919B2, “Heterocyclic P2X7 antagonists” (AXXAM S.P.A., priority 2017, dated 2023).
# Columns and labels:
# Test in all cases: Screen Quest Fluo-8 No Wash Calcium Assay (Bz-ATP evoked Ca2+ influx, FLIPR)
# Format in all cases: cell-based
# [1] = molecular target: T1, P2X7 receptor (Mus musculus, UniProt Q9Z1M0); details: mP2X7; HEK-293 cells stably transfected with P2X7 receptor, Bz-ATP at EC80, Fluo-8 NW; potency ranges A-D
# T1 construct: mP2X7 (IC50; nM); other: mP2X7; HEK-293 cells stably transfected with P2X7 receptor, Bz-ATP at EC80, Fluo-8 NW; potency
# T1 sequence (Q9Z1M0 1-595): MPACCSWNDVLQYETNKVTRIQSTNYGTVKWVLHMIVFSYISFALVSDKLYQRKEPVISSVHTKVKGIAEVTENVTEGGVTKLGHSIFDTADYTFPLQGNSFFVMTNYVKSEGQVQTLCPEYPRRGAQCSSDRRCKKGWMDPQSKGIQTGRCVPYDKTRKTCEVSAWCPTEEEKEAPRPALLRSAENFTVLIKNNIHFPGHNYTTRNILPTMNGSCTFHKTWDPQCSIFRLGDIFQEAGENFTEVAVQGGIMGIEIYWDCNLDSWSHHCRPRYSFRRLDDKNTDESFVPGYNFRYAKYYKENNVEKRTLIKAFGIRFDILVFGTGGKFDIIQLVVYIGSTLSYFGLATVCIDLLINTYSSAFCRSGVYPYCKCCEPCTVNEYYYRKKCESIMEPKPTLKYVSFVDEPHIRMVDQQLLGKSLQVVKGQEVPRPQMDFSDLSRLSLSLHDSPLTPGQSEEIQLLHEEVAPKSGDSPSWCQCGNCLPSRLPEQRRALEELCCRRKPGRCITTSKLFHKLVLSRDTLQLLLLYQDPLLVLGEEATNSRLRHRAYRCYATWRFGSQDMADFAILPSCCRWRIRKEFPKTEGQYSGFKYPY
# Method in brief: (§1)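 Compounds were added to Fluo-8-loaded P2X7-transfected HEK-293 cells 5 min before an EC80 Bz-ATP challenge, and Ca2+ influx was then recorded for 3 min. Buffer held 0.3 mM Ca2+ and no Mg2+. Inhibition was normalised to A438079, giving IC50 values.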
# [2] = molecular target: T2, P2X7 receptor (Rattus norvegicus, UniProt Q64663); details: rP2X7; HEK-293 cells stably transfected with P2X7 receptor, Bz-ATP at EC80, Fluo-8 NW; potency ranges A-D
# T2 construct: rP2X7 (IC50; nM); other: rP2X7; HEK-293 cells stably transfected with P2X7 receptor, Bz-ATP at EC80, Fluo-8 NW; potency
# T2 sequence (Q64663 1-595): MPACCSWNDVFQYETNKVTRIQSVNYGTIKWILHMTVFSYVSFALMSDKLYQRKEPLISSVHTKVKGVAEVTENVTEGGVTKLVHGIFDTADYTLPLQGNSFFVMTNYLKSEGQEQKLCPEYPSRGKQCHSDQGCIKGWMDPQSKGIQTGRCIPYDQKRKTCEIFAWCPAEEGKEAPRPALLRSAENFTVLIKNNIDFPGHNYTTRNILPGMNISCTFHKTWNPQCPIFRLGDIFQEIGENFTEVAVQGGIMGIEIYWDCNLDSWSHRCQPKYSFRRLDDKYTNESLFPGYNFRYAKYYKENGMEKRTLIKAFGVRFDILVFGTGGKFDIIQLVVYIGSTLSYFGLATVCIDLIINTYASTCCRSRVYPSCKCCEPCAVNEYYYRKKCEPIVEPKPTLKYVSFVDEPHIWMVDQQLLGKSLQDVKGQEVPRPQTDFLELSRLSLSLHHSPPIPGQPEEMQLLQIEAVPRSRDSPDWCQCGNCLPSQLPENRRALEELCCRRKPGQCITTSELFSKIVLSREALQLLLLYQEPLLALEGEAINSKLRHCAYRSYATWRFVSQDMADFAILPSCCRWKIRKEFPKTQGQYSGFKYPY
# Method in brief: as §1
# [3] = molecular target: T3, P2X7 receptor (Homo sapiens, UniProt Q99572); design: hP2X7 (IC50; nM); other: hP2X7; HEK-293 cells stably transfected with P2X7 receptor, Bz-ATP at EC80, Fluo-8 NW; potency; details: hP2X7; HEK-293 cells stably transfected with P2X7 receptor, Bz-ATP at EC80, Fluo-8 NW; potency ranges A-D
# T3 sequence (Q99572 1-595): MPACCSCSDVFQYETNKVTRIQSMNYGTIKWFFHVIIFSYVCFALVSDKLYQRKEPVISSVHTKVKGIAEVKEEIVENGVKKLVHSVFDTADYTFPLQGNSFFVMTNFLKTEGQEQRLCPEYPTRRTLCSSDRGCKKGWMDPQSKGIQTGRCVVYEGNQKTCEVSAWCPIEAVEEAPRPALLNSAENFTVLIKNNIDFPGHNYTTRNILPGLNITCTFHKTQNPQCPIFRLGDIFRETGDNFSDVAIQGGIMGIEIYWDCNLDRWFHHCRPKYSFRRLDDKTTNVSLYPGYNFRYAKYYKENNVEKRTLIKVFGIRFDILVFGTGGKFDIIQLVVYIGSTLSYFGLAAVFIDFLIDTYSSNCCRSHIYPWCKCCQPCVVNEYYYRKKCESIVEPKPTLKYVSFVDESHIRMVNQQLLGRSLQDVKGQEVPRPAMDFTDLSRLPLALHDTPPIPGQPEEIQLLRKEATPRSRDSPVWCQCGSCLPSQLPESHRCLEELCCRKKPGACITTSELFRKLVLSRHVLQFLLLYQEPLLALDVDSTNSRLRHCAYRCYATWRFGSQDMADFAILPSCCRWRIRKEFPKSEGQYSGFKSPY
# Method in brief: as §1
smiles,measurement,setting,value
"O=c1onc(CCc2c(F)cccc2Cl)n1CC1CCCCC1 [Example 146, 3-[2-(2-chloro-6-fluorophenyl)ethyl]-4-(cyclohexylmethyl)-1,2,4-oxadiazol-5(4H)-one]",IC50,[1],> 10000 nM
same,IC50,[2],1000 to 10000 nM
same,IC50,[3],1000 to 10000 nM
"O=c1onc(CCc2c(F)cccc2Cl)n1CC1CCC(F)(F)CC1 [Example 147, 3-[2-(2-chloro-6-fluorophenyl)ethyl]-4-[(4,4-difluorocyclohexyl)methyl]-1,2,4-oxadiazol-5(4H)-one]",IC50,[1],200 to 1000 nM
same,IC50,[2],200 to 1000 nM
same,IC50,[3],200 to 1000 nM
"O=c1onc(Cc2ccccc2F)n1CC1CCC(F)(F)CC1 [Example 150, 4-[(4,4-difluorocyclohexyl)methyl]-3-[(2-fluorophenyl)methyl]-4,5-dihydro-1,2,4-oxadiazol-5-one]",IC50,[1],200 to 1000 nM
same,IC50,[2],< 200 nM
same,IC50,[3],200 to 1000 nM
"O=c1onc(Cc2cccc(F)c2)n1CC1CCC(F)(F)CC1 [Example 151, 4-[(4,4-difluorocyclohexyl)methyl]-3-[(3-fluorophenyl)methyl]-4,5-dihydro-1,2,4-oxadiazol-5-one]",IC50,[1],1000 to 10000 nM
same,IC50,[2],200 to 1000 nM
same,IC50,[3],200 to 1000 nM
"O=c1onc(Cc2ccc(F)cc2)n1CC1CCC(F)(F)CC1 [Example 152, 4-[(4,4-difluorocyclohexyl)methyl]-3-[(4-fluorophenyl)methyl]-4,5-dihydro-1,2,4-oxadiazol-5-one]",IC50,[1],1000 to 10000 nM
same,IC50,[2],200 to 1000 nM
same,IC50,[3],200 to 1000 nM
"O=c1onc(Cc2ccc(F)cc2F)n1CC1CCC(F)(F)CC1 [Example 153, 4-[(4,4-difluorocyclohexyl)methyl]-3-[(2,4-difluorophenyl)methyl]-4,5-dihydro-1,2,4-oxadiazol-5-one]",IC50,[1],200 to 1000 nM
same,IC50,[2],< 200 nM
same,IC50,[3],< 200 nM
"COc1ccc(Cc2noc(=O)n2CC2CCC(F)(F)CC2)cc1 [Example 154, 4-[(4,4-difluorocyclohexyl)methyl]-3-[(4-methoxyphenyl)methyl]-4,5-dihydro-1,2,4-oxadiazol-5-one]",IC50,[1],1000 to 10000 nM
same,IC50,[2],1000 to 10000 nM
same,IC50,[3],1000 to 10000 nM
"O=c1onc(Cc2cccc(C(F)(F)F)c2Cl)n1CC1CCC(F)(F)CC1 [Example 155, 3-{[2-chloro-3-(trifluoromethyl)phenyl]methyl}-4-[(4,4-difluorocyclohexyl)methyl]-4,5-dihydro-1,2,4-oxadiazol-5-one]",IC50,[1],200 to 1000 nM
same,IC50,[2],200 to 1000 nM
same,IC50,[3],< 200 nM
"O=c1onc(Cc2cccc(Cl)c2Cl)n1CC1CCC(F)(F)CC1 [Example 156, 3-[(2,3-dichlorophenyl)methyl]-4-[(4,4-difluorocyclohexyl)methyl]-4,5-dihydro-1,2,4-oxadiazol-5-one]",IC50,[1],200 to 1000 nM
same,IC50,[2],< 200 nM
same,IC50,[3],< 200 nM
"O=c1onc(Cc2ccccc2C(F)(F)F)n1CC1CCC(F)(F)CC1 [Example 157, 4-[(4,4-difluorocyclohexyl)methyl]-3-{[2-(trifluoromethyl)phenyl]methyl}-4,5-dihydro-1,2,4-oxadiazol-5-one]",IC50,[1],200 to 1000 nM
same,IC50,[2],< 200 nM
same,IC50,[3],< 200 nM
"O=c1onc(Cc2ccccc2Cl)n1CC1CCC(F)(F)CC1 [Example 158, 3-[(2-chlorophenyl)methyl]-4-[(4,4-difluorocyclohexyl)methyl]-4,5-dihydro-1,2,4-oxadiazol-5-one]",IC50,[1],200 to 1000 nM
same,IC50,[2],< 200 nM
same,IC50,[3],< 200 nM
"O=c1onc(Cc2ccc(Cl)cc2Cl)n1CC1CCC(F)(F)CC1 [Example 159, 3-[(2,4-dichlorophenyl)methyl]-4-[(4,4-difluorocyclohexyl)methyl]-4,5-dihydro-1,2,4-oxadiazol-5-one]",IC50,[1],200 to 1000 nM
same,IC50,[2],< 200 nM
same,IC50,[3],< 200 nM
"COc1cccc(Cc2noc(=O)n2CC2CCC(F)(F)CC2)c1 [Example 160, 4-[(4,4-difluorocyclohexyl)methyl]-3-[(3-methoxyphenyl)methyl]-4,5-dihydro-1,2,4-oxadiazol-5-one]",IC50,[1],1000 to 10000 nM
same,IC50,[2],200 to 1000 nM
same,IC50,[3],200 to 1000 nM
"O=c1onc(Cc2ccccc2)n1CC1CCC(F)(F)CC1 [Example 161, 3-benzyl-4-[(4,4-difluorocyclohexyl)methyl]-4,5-dihydro-1,2,4-oxadiazol-5-one]",IC50,[1],1000 to 10000 nM
same,IC50,[2],200 to 1000 nM
same,IC50,[3],200 to 1000 nM
"O=c1onc(Cc2ccc(F)cc2Cl)n1CC1CCC(F)(F)CC1 [Example 162, 3-[(2-chloro-4-fluorophenyl)methyl]-4-[(4,4-difluorocyclohexyl)methyl]-4,5-dihydro-1,2,4-oxadiazol-5-one]",IC50,[1],> 10000 nM
same,IC50,[2],> 10000 nM
same,IC50,[3],> 10000 nM
"CC(c1ccc(F)cc1)n1c(CC2CCCCC2)noc1=O (stereo not drawn) [Example 163, 3-(cyclohexylmethyl)-4-[1-(4-fluorophenyl)ethyl]-4,5-dihydro-1,2,4-oxadiazol-5-one]",IC50,[1],1000 to 10000 nM
same,IC50,[2],1000 to 10000 nM
same,IC50,[3],1000 to 10000 nM
"CC(c1ccc(F)cc1)n1c(CC2CCC(F)(F)CC2)noc1=O (stereo not drawn) [Example 164, 3-[(4,4-difluorocyclohexyl)methyl]-4-[1-(4-fluorophenyl)ethyl]-4,5-dihydro-1,2,4-oxadiazol-5-one]",IC50,[1],1000 to 10000 nM
same,IC50,[2],1000 to 10000 nM
same,IC50,[3],1000 to 10000 nM
"O=c1onc(CC2CCC(F)(F)CC2)n1Cc1ccccc1F [Example 165, 3-[(4,4-difluorocyclohexyl)methyl]-4-[(2-fluorophenyl)methyl]-4,5-dihydro-1,2,4-oxadiazol-5-one]",IC50,[1],200 to 1000 nM
same,IC50,[2],< 200 nM
same,IC50,[3],200 to 1000 nM
"O=c1onc(CC2CCC(F)(F)CC2)n1Cc1ccc(C(F)(F)F)cc1 [Example 166, 3-[(4,4-difluorocyclohexyl)methyl]-4-{[4-(trifluoromethyl)phenyl]methyl}-4,5-dihydro-1,2,4-oxadiazol-5-one]",IC50,[1],1000 to 10000 nM
same,IC50,[2],1000 to 10000 nM
same,IC50,[3],1000 to 10000 nM
"O=c1onc(CC2CCC(F)(F)CC2)n1Cc1cccc(C(F)(F)F)c1Cl [Example 167, 4-{[2-chloro-3-(trifluoromethyl)phenyl]methyl}-3-[(4,4-dffluorocyclohexyl)methyl]-4,5-dihydro-1,2,4-oxadiazol-5-one]",IC50,[1],1000 to 10000 nM
same,IC50,[2],1000 to 10000 nM
same,IC50,[3],> 10000 nM
"O=c1onc(CC2CCC(F)(F)CC2)n1Cc1ccc(C(F)(F)F)o1 [Example 168, 3-[(4,4-difluorocyclohexyl)methyl]-4-{[5-(trifluoromethyl)furan-2-yl]methyl}-4,5-dihydro-1,2,4-oxadiazol-5-one]",IC50,[1],200 to 1000 nM
same,IC50,[2],200 to 1000 nM
same,IC50,[3],1000 to 10000 nM
